Assay: Storage of compositions with/without nitrogen-gassing and ascorbic acid, assay and impurities
Type: physicochemical
Conditions: phosphate buffer
Description: A possible beneficial effect of nitrogen-gassing during manufacturing and storage was assessed. Selected compositions were manufactured by dissolution of API via stirring for 24 h and stored after treatment with/without nitrogen at 25° C. or 6° C. for up to 28 days.
The manufactured batches consisted of phosphate buffer and vitamin E TPGS and were compared to compositions containing ascorbic acid 1%, additionally. API was used at 0.01 wt.-%, 0.02 wt.-% or 0.04 w.-%. The compositions were saturated with API, where 10 mg, 20 mg or 40 mg were dissolved in 100 g buffer containing 0.5 wt.-%, wt.-1% or 2 wt.-% vitamin E TPGS, respectively. The compositions were transferred into polystyrene bottles and stored at 25° C. or 6° C. A part of the compositions was treated with nitrogen during manufacturing and gassed with nitrogen prior to sealing (see FIG. 18). The compositions were tested for assay and purity of API after manufacturing, as well as after 7, 14 and 28 days.

[1] = vitamin E TPGS 0.5%, Asc. 1%, N2 +, API 0.01%, 6° C., t = 7 d
[2] = vitamin E TPGS 0.5%, Asc. 1%, N2 +, API 0.01%, 6° C., t = 14 d
[3] = vitamin E TPGS 0.5%, Asc. 1%, N2 +, API 0.01%, 6° C., t = 28 d
[4] = vitamin E TPGS 0.5%, Asc. 1%, N2 +, API 0.01%, 25° C., t = 7 d
[5] = vitamin E TPGS 0.5%, Asc. 1%, N2 +, API 0.01%, 25° C., t = 14 d
[6] = vitamin E TPGS 0.5%, Asc. 1%, N2 +, API 0.01%, 25° C., t = 28 d
[7] = vitamin E TPGS 0.5%, Asc. 1%, N2 +, API 0.01%, t = 0
[8] = vitamin E TPGS 0.5%, Asc. 1%, N2 −, API 0.01%, 6° C., t = 7 d
[9] = vitamin E TPGS 0.5%, Asc. 1%, N2 −, API 0.01%, 6° C., t = 14 d
[10] = vitamin E TPGS 0.5%, Asc. 1%, N2 −, API 0.01%, 6° C., t = 28 d
[11] = vitamin E TPGS 0.5%, Asc. 1%, N2 −, API 0.01%, 25° C., t = 7 d
[12] = vitamin E TPGS 0.5%, Asc. 1%, N2 −, API 0.01%, 25° C., t = 14 d
[13] = vitamin E TPGS 0.5%, Asc. 1%, N2 −, API 0.01%, 25° C., t = 28 d
[14] = vitamin E TPGS 0.5%, Asc. 1%, N2 −, API 0.01%, t = 0
[15] = vitamin E TPGS 0.5%, no Asc., N2 +, API 0.01%, 6° C., t = 28 d
[16] = vitamin E TPGS 0.5%, no Asc., N2 +, API 0.01%, 25° C., t = 7 d
[17] = vitamin E TPGS 0.5%, no Asc., N2 +, API 0.01%, 25° C., t = 14 d
[18] = vitamin E TPGS 0.5%, no Asc., N2 +, API 0.01%, t = 0
[19] = vitamin E TPGS 0.5%, no Asc., N2 −, API 0.01%, 6° C., t = 7 d
[20] = vitamin E TPGS 0.5%, no Asc., N2 −, API 0.01%, 6° C., t = 14 d
[21] = vitamin E TPGS 0.5%, no Asc., N2 −, API 0.01%, 6° C., t = 28 d
[22] = vitamin E TPGS 0.5%, no Asc., N2 −, API 0.01%, 25° C., t = 7 d
[23] = vitamin E TPGS 0.5%, no Asc., N2 −, API 0.01%, 25° C., t = 14 d
[24] = vitamin E TPGS 0.5%, no Asc., N2 −, API 0.01%, 25° C., t = 28 d
[25] = vitamin E TPGS 0.5%, no Asc., N2 −, API 0.01%, t = 0
[26] = vitamin E TPGS 1%, Asc. 1%, N2 +, API 0.02%, 6° C., t = 7 d
[27] = vitamin E TPGS 1%, Asc. 1%, N2 +, API 0.02%, 6° C., t = 14 d
[28] = vitamin E TPGS 1%, Asc. 1%, N2 +, API 0.02%, 6° C., t = 28 d
[29] = vitamin E TPGS 1%, Asc. 1%, N2 +, API 0.02%, 25° C., t = 7 d
[30] = vitamin E TPGS 1%, Asc. 1%, N2 +, API 0.02%, 25° C., t = 14 d
[31] = vitamin E TPGS 1%, Asc. 1%, N2 +, API 0.02%, 25° C., t = 28 d
[32] = vitamin E TPGS 1%, Asc. 1%, N2 +, API 0.02%, t = 0
[33] = vitamin E TPGS 1%, no Asc., N2 +, API 0.02%, 6° C., t = 7 d
[34] = vitamin E TPGS 1%, no Asc., N2 +, API 0.02%, 6° C., t = 14 d
[35] = vitamin E TPGS 1%, no Asc., N2 +, API 0.02%, 6° C., t = 28 d
[36] = vitamin E TPGS 1%, no Asc., N2 +, API 0.02%, 25° C., t = 7 d
[37] = vitamin E TPGS 1%, no Asc., N2 +, API 0.02%, 25° C., t = 14 d

CN(C)[C@]1(c2cccc(F)c2)CC[C@]2(CC1)c1[nH]c3ccccc3c1CCN2C(=O)/C=C/c1ccccc1 [API, cis-(E)-4-(3-fluorophenyl)-2′,3′,4′,9′-tetrahydro-N,N-dimethyl-2′-(1-oxo-3-phenyl-2-propenyl)-spiro[cyclohexane-1,1′[1H]-pyrido[3,4-b]indol]-4-amine]
Assay [1]: 65.65 µg/mL
Impurities [1]: 0.65 % (a/a)
Assay [2]: 65.65 µg/mL
Impurities [2]: 29.21 % (a/a)
Assay [3]: 65.82 µg/mL
Impurities [3]: 0.70 % (a/a)
Assay [4]: 63.63 µg/mL
Impurities [4]: 1.00 % (a/a)
Assay [5]: 61.53 µg/mL
Impurities [5]: 1.74 % (a/a)
Assay [6]: 63.95 µg/mL
Impurities [6]: 1.82 % (a/a)
Assay [7]: 66.61 µg/mL
Impurities [7]: 0.58 % (a/a)
Assay [8]: 66.21 µg/mL
Impurities [8]: 0.70 % (a/a)
Assay [9]: 66.54 µg/mL
Impurities [9]: 0.83 % (a/a)
Assay [10]: 66.15 µg/mL
Impurities [10]: 0.70 % (a/a)
Assay [11]: 65.66 µg/mL
Impurities [11]: 0.53 % (a/a)
Assay [12]: 65.27 µg/mL
Impurities [12]: 1.09 % (a/a)
Assay [13]: 61.46 µg/mL
Impurities [13]: 1.36 % (a/a)
Assay [14]: 66.81 µg/mL
Impurities [14]: 0.66 % (a/a)
Assay [15]: 49.80 µg/mL
Impurities [15]: 0.54 % (a/a)
Assay [16]: 49.76 µg/mL
Impurities [16]: 0.36 % (a/a)
Assay [17]: 49.65 µg/mL
Impurities [17]: 1.19 % (a/a)
Assay [18]: 49.49 µg/mL
Impurities [18]: 0.71 % (a/a)
Assay [19]: 50.43 µg/mL
Impurities [19]: 0.63 % (a/a)
Assay [20]: 50.71 µg/mL
Impurities [20]: 0.94 % (a/a)
Assay [21]: 50.27 µg/mL
Impurities [21]: 0.52 % (a/a)
Assay [22]: 50.56 µg/mL
Impurities [22]: 0.45 % (a/a)
Assay [23]: 50.23 µg/mL
Impurities [23]: 1.13 % (a/a)
Assay [24]: 50.36 µg/mL
Impurities [24]: 1.06 % (a/a)
Assay [25]: 50.22 µg/mL
Impurities [25]: 0.68 % (a/a)
Assay [26]: 109.93 µg/mL
Impurities [26]: 0.73 % (a/a)
Assay [27]: 110.67 µg/mL
Impurities [27]: 0.90 % (a/a)
Assay [28]: 110.25 µg/mL
Impurities [28]: 0.91 % (a/a)
Assay [29]: 107.03 µg/mL
Impurities [29]: 1.04 % (a/a)
Assay [30]: 106.77 µg/mL
Impurities [30]: 1.27 % (a/a)
Assay [31]: 93.34 µg/mL
Impurities [31]: 1.79 % (a/a)
Assay [32]: 110.99 µg/mL
Impurities [32]: 0.62 % (a/a)
Assay [33]: 93.47 µg/mL
Impurities [33]: 0.64 % (a/a)
Assay [34]: 93.72 µg/mL
Impurities [34]: 0.75 % (a/a)
Assay [35]: 93.93 µg/mL
Impurities [35]: 0.58 % (a/a)
Assay [36]: 93.61 µg/mL
Impurities [36]: 0.69 % (a/a)
Assay [37]: 93.28 µg/mL
Impurities [37]: 0.86 % (a/a)

Reference: US20180243273A1, “Composition for Intravesical Administration for Treating Bladder Pain” (priority 2017, published 2018)
